Data as given in PMC6660241 (The Journal of organic chemistry, 2019).
Like-named read-outs stand apart in the source and are kept apart here.

Tests used:
SpNanA [1] = target: T1, SpNanA (Streptococcus pneumoniae, UniProt P62575); experiment: biochemical
PmST1 [2] = target: T2, PmST1 (Pasteurella multocida, UniProt Q15KI8); experiment: biochemical; details: for inhibition at 100 µM / inhibition at 1000 µM: read-out: Percentage inhibition, PmST1
V. cholerae sialidase [3] = target: T3, V. cholerae sialidase (Vibrio cholerae serotype O1, UniProt P0C6E9); experiment: biochemical; format: biochemical
T3 sequence (P0C6E9 25-781): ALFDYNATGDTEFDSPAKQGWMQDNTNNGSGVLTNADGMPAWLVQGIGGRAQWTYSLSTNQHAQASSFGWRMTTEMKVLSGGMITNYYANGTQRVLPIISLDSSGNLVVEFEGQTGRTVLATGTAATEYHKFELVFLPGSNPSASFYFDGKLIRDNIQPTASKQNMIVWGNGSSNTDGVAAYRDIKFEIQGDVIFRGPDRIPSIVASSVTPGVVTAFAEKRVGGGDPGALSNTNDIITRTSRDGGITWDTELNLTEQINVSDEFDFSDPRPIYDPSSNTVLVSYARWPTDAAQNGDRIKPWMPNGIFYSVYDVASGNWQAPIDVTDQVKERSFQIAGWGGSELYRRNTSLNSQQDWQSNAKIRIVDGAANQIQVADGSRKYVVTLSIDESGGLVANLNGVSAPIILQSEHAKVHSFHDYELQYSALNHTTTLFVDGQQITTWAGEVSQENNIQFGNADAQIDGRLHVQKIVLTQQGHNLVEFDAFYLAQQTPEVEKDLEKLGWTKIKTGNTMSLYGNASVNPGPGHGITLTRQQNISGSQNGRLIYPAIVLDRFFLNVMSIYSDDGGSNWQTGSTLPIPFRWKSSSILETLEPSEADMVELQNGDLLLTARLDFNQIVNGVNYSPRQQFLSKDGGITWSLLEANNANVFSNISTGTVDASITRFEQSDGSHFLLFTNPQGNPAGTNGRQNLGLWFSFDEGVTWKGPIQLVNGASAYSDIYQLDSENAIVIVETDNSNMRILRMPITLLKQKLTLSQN

SpNanC [4] = target: T4, SpNanC (Streptococcus pneumoniae, UniProt A0A0H2UQE4); experiment: biochemical; details: for inhibition at 100 µM / inhibition at 1000 µM: read-out: Percentage inhibition, SpNanC
A. ureafaciens sialidase [5] = target: T5, A. ureafaciens sialidase (Paenarthrobacter ureafaciens, UniProt Q5W7Q2); experiment: Sialidase inhibition assay; format: biochemical, Arthrobacter ureafaciens; details: read-out: Percentage inhibition, A. ureafaciens
hNEU2 [6] = target: T6, hNEU2 (Homo sapiens, UniProt Q9Y3R4); experiment: Sialidase inhibition assay; format: biochemical; details: read-out: Percentage inhibition, hNEU2
T6 sequence (Q9Y3R4 whole entry): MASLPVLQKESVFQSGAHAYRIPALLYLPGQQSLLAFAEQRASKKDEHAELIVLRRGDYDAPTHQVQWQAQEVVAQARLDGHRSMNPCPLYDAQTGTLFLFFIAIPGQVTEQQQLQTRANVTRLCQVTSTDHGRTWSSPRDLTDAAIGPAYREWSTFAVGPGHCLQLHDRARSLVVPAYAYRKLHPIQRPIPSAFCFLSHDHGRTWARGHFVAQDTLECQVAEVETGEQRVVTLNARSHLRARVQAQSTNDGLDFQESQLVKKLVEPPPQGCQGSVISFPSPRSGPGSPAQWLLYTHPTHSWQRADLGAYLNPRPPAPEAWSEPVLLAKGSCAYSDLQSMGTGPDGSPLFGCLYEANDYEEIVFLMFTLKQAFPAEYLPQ

SpNanB = SpNanB (Streptococcus pneumoniae serotype 4, UniProt Q54727); experiment: biochemical; details: for inhibition at 100 µM / inhibition at 1000 µM: read-out: Percentage inhibition, SpNanB
SpNanB, sequence (Q54727 30-697): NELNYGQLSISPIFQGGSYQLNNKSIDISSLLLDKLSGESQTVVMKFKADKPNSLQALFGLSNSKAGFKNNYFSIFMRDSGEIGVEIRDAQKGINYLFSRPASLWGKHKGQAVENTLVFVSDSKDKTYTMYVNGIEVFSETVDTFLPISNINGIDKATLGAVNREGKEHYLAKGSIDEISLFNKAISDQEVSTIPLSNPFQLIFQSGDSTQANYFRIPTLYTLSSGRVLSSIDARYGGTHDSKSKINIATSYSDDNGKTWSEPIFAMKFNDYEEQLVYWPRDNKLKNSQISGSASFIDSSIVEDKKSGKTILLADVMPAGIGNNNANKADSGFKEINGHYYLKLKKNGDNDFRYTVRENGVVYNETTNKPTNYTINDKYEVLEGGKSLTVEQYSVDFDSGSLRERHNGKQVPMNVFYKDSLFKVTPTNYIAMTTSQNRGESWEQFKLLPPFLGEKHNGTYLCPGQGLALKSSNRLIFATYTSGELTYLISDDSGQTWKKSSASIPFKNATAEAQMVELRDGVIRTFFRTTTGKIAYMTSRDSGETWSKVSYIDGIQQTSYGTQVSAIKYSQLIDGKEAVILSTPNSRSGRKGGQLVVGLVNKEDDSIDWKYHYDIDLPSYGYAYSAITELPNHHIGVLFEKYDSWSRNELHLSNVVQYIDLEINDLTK

[7] = target: C. perfringens sialidase (CpNanI) (Clostridium perfringens, UniProt A0A0H2YQR1); experiment: biochemical
C. perfringens sialidase (CpNanI), sequence (A0A0H2YQR1 27-694 limits assumed): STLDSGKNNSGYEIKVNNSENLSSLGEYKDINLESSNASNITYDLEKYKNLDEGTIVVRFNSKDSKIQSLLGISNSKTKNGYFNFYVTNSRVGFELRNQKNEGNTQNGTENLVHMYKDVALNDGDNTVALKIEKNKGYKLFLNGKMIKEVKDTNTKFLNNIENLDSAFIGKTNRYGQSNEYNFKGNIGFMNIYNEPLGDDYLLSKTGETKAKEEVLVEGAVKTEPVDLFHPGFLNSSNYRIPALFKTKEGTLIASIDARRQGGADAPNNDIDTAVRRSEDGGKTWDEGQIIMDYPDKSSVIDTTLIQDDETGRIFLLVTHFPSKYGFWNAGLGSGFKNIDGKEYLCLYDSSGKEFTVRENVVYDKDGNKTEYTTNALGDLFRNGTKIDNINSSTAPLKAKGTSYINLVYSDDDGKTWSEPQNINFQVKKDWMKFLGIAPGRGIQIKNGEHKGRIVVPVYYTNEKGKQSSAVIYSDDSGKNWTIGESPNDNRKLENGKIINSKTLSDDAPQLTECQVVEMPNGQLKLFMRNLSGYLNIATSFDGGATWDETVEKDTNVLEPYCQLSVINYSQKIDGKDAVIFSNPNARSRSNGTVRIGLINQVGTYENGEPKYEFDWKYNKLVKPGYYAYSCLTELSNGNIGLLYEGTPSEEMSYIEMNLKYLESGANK

BiNanH2 [8] = target: T7, BiNanH2 (Bifidobacterium longum subsp. infantis, UniProt A0ACD7UU12); experiment: biochemical; format: biochemical, Bifidobacterium longum subsp. infantis ATCC15697
[9] = tested on: C. perfringens sialidase CpNanI; format: biochemical, Clostridium perfringens; details: inhibitor:sialidase 2:1 molar ratio, 23 °C; for sensitivity of CpNanI to the covalent inhibitor in the time course study: Figures 2A, S2A
A. ureafaciens sialidase [10] = target: T5, A. ureafaciens sialidase; details: read-out: IC50, A. ureafaciens; substrate Neu5Acα2–3GalβpNP; ref [47]; cited from earlier work
PmST1 [11] = target: T2, PmST1; details: read-out: IC50, PmST1; substrate Neu5Acα2–3GalβpNP; ref [25]; cited from earlier work
SpNanC [12] = target: T4, SpNanC; details: read-out: IC50, SpNanC; substrate Neu5Acα2–3GalβpNP; ref [25]; cited from earlier work
SpNanA [13] = target: T1, SpNanA; format: biochemical; details: inhibitor:sialidase 2:1 molar ratio, 23 °C
BiNanH2 [14] = target: T7, BiNanH2; format: biochemical, Bifidobacterium longum subsp. infantis ATCC15697; details: inhibitor:sialidase 2:1 molar ratio, 23 °C
hNEU2 [15] = target: T6, hNEU2; format: biochemical; details: inhibitor:sialidase 2:1 molar ratio; 23 °C; Figures 2E, S2E
V. cholerae sialidase [16] = target: T3, V. cholerae sialidase; format: biochemical; details: inhibitor:sialidase 2:1 molar ratio; 23 °C
[17] = read-out: Percentage inhibition, SpNanA
[18] = read-out: Percentage inhibition, V. cholerae
[19] = read-out: Percentage inhibition, C. perfringens
[20] = read-out: Percentage inhibition, BiNanH2

T1 sequence (P62575 54-1035): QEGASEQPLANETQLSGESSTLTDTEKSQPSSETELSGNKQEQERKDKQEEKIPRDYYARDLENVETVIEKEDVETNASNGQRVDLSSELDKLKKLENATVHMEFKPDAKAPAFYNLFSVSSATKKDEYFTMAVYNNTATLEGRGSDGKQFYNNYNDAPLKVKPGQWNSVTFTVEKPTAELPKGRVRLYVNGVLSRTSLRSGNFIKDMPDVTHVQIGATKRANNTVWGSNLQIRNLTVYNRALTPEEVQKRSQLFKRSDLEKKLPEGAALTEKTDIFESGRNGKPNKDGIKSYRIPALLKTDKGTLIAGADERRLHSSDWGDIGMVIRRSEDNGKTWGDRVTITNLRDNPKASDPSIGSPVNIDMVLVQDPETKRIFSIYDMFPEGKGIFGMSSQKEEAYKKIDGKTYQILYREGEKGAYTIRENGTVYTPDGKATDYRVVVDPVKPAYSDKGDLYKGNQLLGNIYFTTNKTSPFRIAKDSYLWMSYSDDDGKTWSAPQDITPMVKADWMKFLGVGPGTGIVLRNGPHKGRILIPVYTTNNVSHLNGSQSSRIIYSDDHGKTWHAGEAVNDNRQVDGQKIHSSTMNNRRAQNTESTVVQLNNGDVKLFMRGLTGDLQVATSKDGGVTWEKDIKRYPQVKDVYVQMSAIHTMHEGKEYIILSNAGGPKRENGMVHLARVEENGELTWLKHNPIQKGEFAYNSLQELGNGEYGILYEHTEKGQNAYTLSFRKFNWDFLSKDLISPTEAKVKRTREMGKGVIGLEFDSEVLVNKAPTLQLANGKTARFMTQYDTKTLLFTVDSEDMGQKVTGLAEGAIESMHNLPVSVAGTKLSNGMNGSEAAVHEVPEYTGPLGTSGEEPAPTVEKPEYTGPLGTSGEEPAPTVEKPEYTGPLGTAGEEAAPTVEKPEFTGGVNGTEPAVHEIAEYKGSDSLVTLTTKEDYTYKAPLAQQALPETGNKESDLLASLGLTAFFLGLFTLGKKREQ

Structure (SMILES): [N-]=[N+]=N[C@@H]1[C@@H](O)[C@H](F)[C@](F)(C(=O)O)O[C@H]1[C@H](O)[C@H](O)CO [Compound 3, 5-Azido-2,3,5-trideoxy-3-fluoro-D-erythro-α-L-gluco-non-2-ulopyranosylonic fluoride]
- IC50 (SpNanA [1]): > 1000 µM
- inhibition at 100 µM (SpNanA [1]; [17]): < 1%
- inhibition at 1000 µM (SpNanA [1]; [17]): 29.6 ± 0.9%
- IC50 (PmST1 [2]): > 1000 µM
- inhibition at 100 µM (PmST1 [2]): < 1%
- inhibition at 1000 µM (PmST1 [2]): 7.8 ± 0.3%
- inhibition at 100 µM (V. cholerae sialidase [3]; [18]): 25 ± 1%
- inhibition at 1000 µM (V. cholerae sialidase [3]; [18]): 76.6 ± 4.6%
- inhibition at 100 µM (SpNanC [4]): < 1%
- inhibition at 1000 µM (SpNanC [4]): 6.5 ± 0.8%
- inhibition at 100 µM (A. ureafaciens sialidase [5]): 75.2 ± 0.2%
- inhibition at 100 µM (hNEU2 [6]): 37.5 ± 1.2%
- inhibition at 1000 µM (hNEU2 [6]): 80.7 ± 1.2%
- IC50 (SpNanB): > 1000 µM
- inhibition at 100 µM (SpNanB): 35.1 ± 0.8%
- inhibition at 1000 µM (SpNanB): 38 ± 0.9%
- IC50 [7]: > 1000 µM
- inhibition at 100 µM [7, 19]: 29.8 ± 1.2%
- inhibition at 1000 µM [7, 19]: 30 ± 0.8%
- inhibition at 100 µM (BiNanH2 [8]; [20]): 40.8 ± 3.4%
- inhibition at 1000 µM (BiNanH2 [8]; [20]): 85.6 ± 0.5%

Structure (SMILES): CC(=O)N[C@@H]1[C@@H](O)[C@@H](F)[C@](F)(C(=O)O)O[C@H]1[C@H](O)[C@H](O)CO [Compound 5, 5-Acetamido-2,3,5-trideoxy-3-fluoro-D-erythro-α-L-manno-non-2-ulopyranosylonic fluoride]
- IC50 (SpNanA [1]): 0.13 µM
- inhibition at 100 µM (SpNanA [1]; [17]): 99.9 ± 0.1%
- IC50 (PmST1 [2]): > 1000 µM
- inhibition at 100 µM (PmST1 [2]): < 1%
- inhibition at 1000 µM (PmST1 [2]): 3 ± 0.6%
- IC50 (V. cholerae sialidase [3]): 0.33 µM
- inhibition at 100 µM (V. cholerae sialidase [3]; [18]): 96.8 ± 1.4%
- inhibition at 100 µM (SpNanC [4]): < 1%
- inhibition at 1000 µM (SpNanC [4]): 55.2 ± 0.4%
- inhibition at 100 µM (A. ureafaciens sialidase [5]): 99.9 ± 0.2%
- inhibition at 100 µM (hNEU2 [6]): 69.7 ± 0.4%
- IC50 (SpNanB): > 1000 µM
- inhibition at 100 µM (SpNanB): 12 ± 0.2%
- inhibition at 1000 µM (SpNanB): 19 ± 0.2%
- IC50 [7]: 0.18 µM
- inhibition at 100 µM [7, 19]: 99.9 ± 0.1%
- inhibition at 100 µM (BiNanH2 [8]; [20]): 98.9 ± 0.5%

Structure (SMILES): CC(=O)N[C@@H]1[C@@H](O)[C@H](F)[C@](F)(C(=O)O)O[C@H]1[C@H](O)[C@H](O)CO [Compound 1, 5-Acetamido-2,3,5-trideoxy-3-fluoro-D-erythro-α-L-gluco-non-2-ulopyranosylonic fluoride]
- inhibition at 100 µM (SpNanA [1]; [17]): 99.7 ± 0.3%
- IC50 (PmST1 [2]): > 1000 µM
- inhibition at 100 µM (PmST1 [2]): < 1%
- inhibition at 1000 µM (PmST1 [2]): 4.3 ± 0.1%
- IC50 (V. cholerae sialidase [3]): 2 ± 0.1 µM
- inhibition at 100 µM (V. cholerae sialidase [3]; [18]): 97.7 ± 0.3%
- IC50 (SpNanC [4]; read-out: IC50, SpNanC): > 1000 µM
- inhibition at 100 µM (SpNanC [4]): < 1%
- inhibition at 1000 µM (SpNanC [4]): 25.1 ± 6.1%
- inhibition at 100 µM (A. ureafaciens sialidase [5]): 99.2 ± 0.3%
- inhibition at 100 µM (hNEU2 [6]): 75.4 ± 0.6%
- IC50 (SpNanB): > 1000 µM
- inhibition at 100 µM (SpNanB): 11.8 ± 1%
- inhibition at 1000 µM (SpNanB): 30.2 ± 2.2%
- inhibition at 100 µM [7, 19]: 80.6 ± 0.7%
- inhibition at 100 µM (BiNanH2 [8]; [20]): 95.4 ± 0.9%

Structure (SMILES): CC(=O)N[C@@H]1[C@@H](O)[C@H](F)[C@](F)(C(=O)O)O[C@H]1[C@H](O)[C@H](O)CN=[N+]=[N-] [Compound 2, 5-Acetamido-9-azido-2,3,5,9-tetradeoxy-3-fluoro-D-erythro-α-L-gluco-non-2-ulopyranosylonic fluoride]
- IC50 (SpNanA [1]): 0.21 µM
- inhibition at 100 µM (SpNanA [1]; [17]): 85.8 ± 0.7%
- IC50 (PmST1 [2]): > 1000 µM
- inhibition at 100 µM (PmST1 [2]): < 1%
- inhibition at 1000 µM (PmST1 [2]): 9.3 ± 2.3%
- IC50 (V. cholerae sialidase [3]): 0.73 µM
- inhibition at 100 µM (V. cholerae sialidase [3]; [18]): 99.2 ± 0.5%
- inhibition at 100 µM (SpNanC [4]): < 1%
- inhibition at 1000 µM (SpNanC [4]): 53.9 ± 0.1%
- sensitivity of CpNanI to the covalent inhibitor in the time course study [9]: also sensitive
- inhibition at 100 µM (A. ureafaciens sialidase [5]): 99.9 ± 0.2%
- inhibition at 100 µM (hNEU2 [6]): 82.3 ± 2.8%
- inhibition at 100 µM (SpNanB): 26.8 ± 0.2%
- inhibition at 1000 µM (SpNanB): 51.9 ± 2.2%
- IC50 [7]: 0.73 µM
- inhibition at 100 µM [7, 19]: 99.9 ± 0.1%
- inhibition at 100 µM (BiNanH2 [8]; [20]): 98.9%

Structure (SMILES): O=C(CO)N[C@@H]1[C@@H](O)[C@H](F)[C@](F)(C(=O)O)O[C@H]1[C@H](O)[C@H](O)CO [Compound 4, 5-glycolamido-2,3,5-trideoxy-3-fluoro-D-erythro-α-L-gluco-non-2-ulopyranosylonic fluoride]
- inhibition at 100 µM (SpNanA [1]; [17]): 78.4 ± 0.5%
- IC50 (PmST1 [2]): > 1000 µM
- inhibition at 100 µM (PmST1 [2]): < 1%
- inhibition at 1000 µM (PmST1 [2]): 22.4 ± 0.1%
- IC50 (V. cholerae sialidase [3]): 1.6 ± 0.1 µM
- inhibition at 100 µM (V. cholerae sialidase [3]; [18]): 97.8 ± 0.1%
- inhibition at 100 µM (SpNanC [4]): < 1%
- inhibition at 1000 µM (SpNanC [4]): 5.5 ± 0.2%
- inhibition at 100 µM (A. ureafaciens sialidase [5]): 96.1 ± 0.6%
- inhibition at 100 µM (hNEU2 [6]): 80.4 ± 1.3%
- IC50 (SpNanB): > 1000 µM
- inhibition at 100 µM (SpNanB): 25.3 ± 1.7%
- inhibition at 1000 µM (SpNanB): 26 ± 4.9%
- inhibition at 100 µM [7, 19]: 71.6 ± 1.2%
- inhibition at 100 µM (BiNanH2 [8]; [20]): 87.3 ± 0.8%

Structure (SMILES): CC(=O)N[C@H]1[C@H]([C@H](O)[C@H](O)CO)OC(C(=O)O)=C[C@@H]1O [Neu5Ac2en, 2-deoxy-2,3-didehydro-N-acetylneuraminic acid]
- IC50 (A. ureafaciens sialidase [10]): 8.1 ± 0.3 µM
- IC50 (PmST1 [11]): > 1000 µM
- IC50 (SpNanC [12]): > 1000 µM

Structure (SMILES): CC(=O)N[C@@H]1[C@@H](O)[C@@H](F)[C@](F)(C(=O)O)O[C@H]1[C@H](O)[C@H](O)CN=[N+]=[N-] [Compound 6, 5-Acetamido-9-azido-2,3,5,9-tetradeoxy-3-fluoro-D-erythro-α-L-manno-non-2-ulopyranosylonic fluoride]
- time for de-activation of SpNanA (SpNanA [13]): < 10 min
- sensitivity of SpNanA to the covalent inhibitor in the time course study (SpNanA [13]; Figures 2C, S2C): sensitive
- IC50 (SpNanA [1]): 0.033 µM
- inhibition at 100 µM (SpNanA [1]; [17]): 99.9 ± 0.1%
- IC50 (PmST1 [2]): > 1000 µM
- inhibition at 100 µM (PmST1 [2]): < 1%
- inhibition at 1000 µM (PmST1 [2]): 6 ± 0.4%
- IC50 (V. cholerae sialidase [3]): 0.18 µM
- inhibition at 100 µM (V. cholerae sialidase [3]; [18]): 99.9 ± 0.6%
- IC50 for V. cholerae sialidase better than that for hNEU2 (V. cholerae sialidase [3]; selectivity V. cholerae sialidase versus hNEU2): at least 500 fold
- inhibition at 100 µM (SpNanC [4]): < 1%
- inhibition at 1000 µM (SpNanC [4]): 83.7 ± 3.5%
- time for de-activation of CpNanI [9]: < 10 min
- sensitivity of CpNanI to the covalent inhibitor in the time course study [9]: sensitive
- time for de-activation of BiNanH2 (BiNanH2 [14]): < 10 min
- sensitivity of BiNanH2 to the covalent inhibitor in the time course study (BiNanH2 [14]; Figures 2D, S2D): sensitive
- sensitivity of hNEU2 to the covalent inhibitor in the time course study (hNEU2 [15]): except for hNEU2
- inhibition at 100 µM (A. ureafaciens sialidase [5]): 99.9 ± 0.1%
- inhibition at 100 µM (hNEU2 [6]): 1.5 ± 0.3%
- inhibition at 1000 µM (hNEU2 [6]): 53.4 ± 1.3%
- IC50 (SpNanB): > 1000 µM
- inhibition at 100 µM (SpNanB): 16.7 ± 1.6%
- inhibition at 1000 µM (SpNanB): 43.8 ± 1.4%
- IC50 [7]: 0.024 µM
- inhibition at 100 µM [7, 19]: 99.9 ± 0.1%
- inhibition at 100 µM (BiNanH2 [8]; [20]): 98.8 ± 2.2%
- IC50 for BiNanH2 better than that for hNEU2 (BiNanH2 [8]; selectivity BiNanH2 versus hNEU2): at least 500 fold
- time for de-activation of V. cholerae sialidase (V. cholerae sialidase [16]): < 10 min
